{"source": "patent US7071297B2", "about": "“Tolerogenic peptides from myelin basic protein” (Apitope Technology (Bristol) Limited, priority 2002, dated 2006)", "key": {"T cell clone MS60:D2": {"system": "T cell clone MS60:D2", "assay": "Presentation of nested MBP peptides by fixed APC (Mgar cells) to T cell clone MS60:D2, proliferation assay", "assay_type": "cell-based, human", "settings": "p-formaldehyde fixed Mgar (HLA-DR2+ve) cells, T cell clone MS60:D2, 3H-thymidine uptake, FIG. 1"}, "T cell clone N5": {"system": "T cell clone N5", "assay": "Presentation of MBP peptide 140-154 by fixed APC to T cell clone N5, proliferation assay", "assay_type": "cell-based, human", "settings": "T cell clone N5, FIG. 2", "method": "MBP-specific T cell lines (TCL) are generated from 8 MS patients and 2 healthy control donors. PBMC from each subject are separated as described above and plated out at 1×10^6 cells/ml in 6-well plates in the presence of MBP (50 μg/ml); a portion of PBMC from each subject is regularly frozen and stored for subsequent restimulations. Seven days later the cells are fed with fresh medium containing 2% IL-2 (Lymphocult-HT; Biotest LTD., Birmingham, UK), and on day 12 of culture all cells are restimulated with antigen, IL-2 and irradiated (2500 Rad) autologous PBMC as a source of antigen presenting cells (APC), at a cell ratio of 1T cell:5 APC. Cells are expanded in IL-2 every 3-4 days, and on day 14 are restimulated with antigen, IL-2 and PBMC, as described above. On the day of the first restimulation cells are examined for specific proliferation to MBP. Briefly, 2×10^4 T cells and 1×10^5 irradiated autologous PBMC are cultured in triplicate, in 96-well round-bottom plates, in the presence of MBP. […]\nLive or p-formaldehyde fixed Mgar (HLA-DR2+ve) cells were incubated with peptides in serum or in serum alone, together with T cells. The T cell proliferative response was measured by ^3H-thymidine uptake as follows. […] [^3H]-Thymidine incorporation is determined using a Microbeta liquid scintillation counter (LKB-Wallac). […]"}, "[1]": {"system": "lymph node cells of HLA:DR2 transgenic mice", "assay": "Induction of tolerance in HLA:DR2 transgenic mouse, lymph node proliferation assay", "assay_type": "in vivo"}, "[2]": {"settings": "cited from earlier work; for induction of tolerance: administered in solution"}, "I-A^S": {"biological_target": "T1, I-A^S (Mus musculus, UniProt P06345+P14437)", "T1 sequence (P14437 1-233)": "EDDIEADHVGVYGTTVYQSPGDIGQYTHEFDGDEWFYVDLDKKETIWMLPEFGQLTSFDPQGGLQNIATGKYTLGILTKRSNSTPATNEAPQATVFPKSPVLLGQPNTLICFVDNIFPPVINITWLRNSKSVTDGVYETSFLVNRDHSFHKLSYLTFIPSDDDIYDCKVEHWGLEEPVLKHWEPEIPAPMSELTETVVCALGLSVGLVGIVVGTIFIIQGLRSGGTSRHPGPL", "T1 sequence (P06345 28-263)": "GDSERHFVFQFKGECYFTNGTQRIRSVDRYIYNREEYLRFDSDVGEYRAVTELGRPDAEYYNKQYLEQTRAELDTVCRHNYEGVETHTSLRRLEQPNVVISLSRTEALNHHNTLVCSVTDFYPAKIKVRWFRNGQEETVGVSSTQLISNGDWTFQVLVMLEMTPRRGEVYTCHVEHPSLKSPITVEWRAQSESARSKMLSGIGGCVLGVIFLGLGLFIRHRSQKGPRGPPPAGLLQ", "settings": "cited from earlier work"}}, "note": "Where two headings read alike, the source gives them in different places.", "data": [{"substance": "GFKGVDAQGTLSKIF (listed as Homo sapiens) [MBP 140-154, myelin basic protein peptide 140-154]", "values": [{"measurement": "presentation by fixed APC to T cells without further processing (apitope)", "setting": "T cell clone MS60:D2", "value": "apitopes"}, {"measurement": "presentation by fixed APC without further processing", "setting": "T cell clone N5", "value": "can be presented by fixed APC without further processing"}, {"measurement": "SI values of the one pre-treated mouse that failed to show induction of tolerance", "setting": "[1]; Group B, over peptide concentration range 1-150 ugml^-1", "value": "12-15"}, {"measurement": "Stimulation Index (SI) median of lymphocyte proliferation", "setting": "[1]; Group B: 100 ug peptide i.n. days -8, -6, -4, immunised with same peptide in CFA, restimulated with 150 ugml^-1 peptide", "value": 3}, {"measurement": "induction of tolerance", "setting": "[1]; intranasal pre-treatment, lymphocytes from HLA-DR2 mice", "value": "induced tolerance"}]}, {"substance": "AHKGFKGVDAQGTLS (listed as Homo sapiens) [MBP 137-151, myelin basic protein peptide 137-151]", "values": [{"measurement": "presentation by fixed APC to T cells without further processing (apitope)", "setting": "T cell clone MS60:D2", "value": "apitopes"}]}, {"substance": "YKSAHKGFKGVDAQG (listed as Homo sapiens) [MBP 134-148, myelin basic protein peptide 134-148]", "values": [{"measurement": "presentation by fixed APC to T cells without further processing (apitope)", "setting": "T cell clone MS60:D2", "value": "apitopes"}]}, {"substance": "MBP[89-101]: myelin basic protein (MBP) peptide 89-101, an immunodominant antigen after immunisation (PHLIRLFSRDAPG; UniProt P04370 89-101, looked up, fragment)", "values": [{"measurement": "induction of tolerance", "setting": "[2]", "value": "not tolerogenic"}, {"measurement": "induction of tolerance", "setting": "[2]; listed as 89-101", "value": "ineffective at inducing tolerance"}, {"measurement": "immunogenicity (priming for T cell reactivity and induction of EAE)", "setting": "[2]; after immunisation", "value": "very effective immunogen"}, {"measurement": "affinity of binding to I-A^S", "setting": "I-A^S", "value": "relatively high affinity"}]}, {"substance": "SAHKGFKGVDAQGTL (listed as Homo sapiens) [MBP 136-150, myelin basic protein peptide 136-150]", "values": [{"measurement": "presentation by fixed APC to T cells without further processing (apitope)", "setting": "T cell clone MS60:D2", "value": "apitopes"}]}, {"substance": "KGFKGVDAQGTLSKI (listed as Homo sapiens) [MBP 139-153, myelin basic protein peptide 139-153]", "values": [{"measurement": "presentation by fixed APC to T cells without further processing (apitope)", "setting": "T cell clone MS60:D2", "value": "apitopes"}]}, {"substance": "HKGFKGVDAQGTLSK (listed as Homo sapiens) [MBP 138-152, myelin basic protein peptide 138-152]", "values": [{"measurement": "presentation by fixed APC to T cells without further processing (apitope)", "setting": "T cell clone MS60:D2", "value": "apitopes"}]}, {"substance": "KSAHKGFKGVDAQGT (listed as Homo sapiens) [MBP 135-149, myelin basic protein peptide 135-149]", "values": [{"measurement": "presentation by fixed APC to T cells without further processing (apitope)", "setting": "T cell clone MS60:D2", "value": "apitopes"}]}]}
